In US20240365781A1, “SYNERGISTICALLY EFFECTIVE HERBICIDE COMPOSITION COMPRISING PELARGONIC ACID AND FLAZASULFURON” (Belchim Crop Protection NV, priority 2017, published 2024):

How the values were obtained:
Assay in all cases: post-emergence test, field trial (Examples 1-5)
Assay type in all cases: in vivo
Settings in all cases: FT
Chenopodium album = system: Chenopodium album
Description: (§1) The expected activity of a given combination of two or three herbicides can be calculated as follows according to a calculation method by Colby (cf. COLBY, S. R.: “Calculating synergistic and antagonistic responses of herbicide combinations”, • Weeds 15, pages 20-22, 1967): • If X=% damage by herbicide (A) at an application rate of m g/ha, • Y=% damage by herbicide (B) at an application rate of n g/ha, • E=the expected damage by herbicides (A) and (B) at application rates of m and n […] and, • then for a combination:
(§2) Individual compositions comprising pelargonic acid or flazasulfuron are compared with a herbicide composition according to the invention comprising pelargonic acid and flazasulfuron.
(§3) Herbicidal activity was determined by performing a post-emergence test. […] The corresponding mixture was in the form of a spray liquor. Besides, spray liquors of individual compositions comprising pelargonic acid or flazasulfuron were used.
(§4) Tests were performed on test fields (field trials) or in pots (pot trials).

Echinochloa crusgalli = system: Echinochloa crusgalli
Description: as §1, §2, §3, §4

Plantago major = system: Plantago major
Description: as §1, §2, §3, §4

[1] = 3 d, pelargonic acid 10880 g/ha, flazasulfuron 50 g/ha, 16 L/ha
[2] = 3 d, pelargonic acid 21760 g/ha, flazasulfuron 25 g/ha, 32 L/ha
[3] = 3 d, pelargonic acid 21760 g/ha, flazasulfuron 50 g/ha, 32 L/ha
[4] = 7 d, pelargonic acid 10880 g/ha, flazasulfuron 25 g/ha, 16 L/ha
[5] = 7 d, pelargonic acid 10880 g/ha, flazasulfuron 50 g/ha, 16 L/ha
[6] = 7 d, pelargonic acid 21760 g/ha, flazasulfuron 25 g/ha, 32 L/ha
[7] = 7 d, pelargonic acid 21760 g/ha, flazasulfuron 50 g/ha, 32 L/ha
[8] = 13 d, pelargonic acid 10880 g/ha, flazasulfuron 25 g/ha, 16 L/ha
[9] = 13 d, pelargonic acid 10880 g/ha, flazasulfuron 50 g/ha, 16 L/ha
[10] = 13 d, pelargonic acid 21760 g/ha, flazasulfuron 25 g/ha, 32 L/ha
[11] = 13 d, pelargonic acid 21760 g/ha, flazasulfuron 50 g/ha, 32 L/ha
[12] = 23 d, pelargonic acid 10880 g/ha, flazasulfuron 25 g/ha, 16 L/ha
[13] = 23 d, pelargonic acid 21760 g/ha, flazasulfuron 25 g/ha, 32 L/ha
[14] = 23 d, pelargonic acid 21760 g/ha, flazasulfuron 50 g/ha, 32 L/ha
[15] = 30 d, pelargonic acid 10880 g/ha, flazasulfuron 25 g/ha, 16 L/ha
[16] = 30 d, pelargonic acid 10880 g/ha, flazasulfuron 50 g/ha, 16 L/ha
[17] = 30 d, pelargonic acid 21760 g/ha, flazasulfuron 25 g/ha, 32 L/ha
[18] = 30 d, pelargonic acid 21760 g/ha, flazasulfuron 50 g/ha, 32 L/ha
[19] = 38 d, pelargonic acid 10880 g/ha, flazasulfuron 25 g/ha, 16 L/ha
[20] = 38 d, pelargonic acid 10880 g/ha, flazasulfuron 50 g/ha, 16 L/ha
[21] = 38 d, pelargonic acid 21760 g/ha, flazasulfuron 25 g/ha, 32 L/ha
[22] = 38 d, pelargonic acid 21760 g/ha, flazasulfuron 50 g/ha, 32 L/ha
[23] = 3 d, pelargonic acid 10880 g/ha, flazasulfuron 25 g/ha, 16 L/ha

## CCCCCCCCC(=O)O [Pelargonic acid, nonanoic acid]
Chenopodium album; [1]
  herbicidal effect: 40%
Chenopodium album; [2]
  herbicidal effect: 45%
Chenopodium album; [3]
  herbicidal effect: 45%
Chenopodium album; [4]
  herbicidal effect: 40%
Chenopodium album; [5]
  herbicidal effect: 40%
Chenopodium album; [6]
  herbicidal effect: 35%
Chenopodium album; [7]
  herbicidal effect: 35%
Chenopodium album; [8]
  herbicidal effect: 10%
Chenopodium album; [9]
  herbicidal effect: 10%
Chenopodium album; [10]
  herbicidal effect: 10%
Chenopodium album; [11]
  herbicidal effect: 10%
Chenopodium album; [12]
  herbicidal effect: 15%
Chenopodium album; [13]
  herbicidal effect: 40%
Chenopodium album; [14]
  herbicidal effect: 40%
Chenopodium album; [15]
  herbicidal effect: 0%
Chenopodium album; [16]
  herbicidal effect: 0%
Chenopodium album; [17]
  herbicidal effect: 0%
Chenopodium album; [18]
  herbicidal effect: 0%
Chenopodium album; [19]
  herbicidal effect: 15%
Chenopodium album; [20]
  herbicidal effect: 15%
Chenopodium album; [21]
  herbicidal effect: 30%
Chenopodium album; [22]
  herbicidal effect: 30%
Echinochloa crusgalli; 3 d, pelargonic acid 5440 g/ha, flazasulfuron 50 g/ha, 8 L/ha
  herbicidal effect: 51.3%
Echinochloa crusgalli; [23]
  herbicidal effect: 45%
Echinochloa crusgalli; [2]
  herbicidal effect: 50%
Echinochloa crusgalli; 7 d, pelargonic acid 5440 g/ha, flazasulfuron 50 g/ha, 8 L/ha
  herbicidal effect: 30.8%
Echinochloa crusgalli; [4]
  herbicidal effect: 30%
Echinochloa crusgalli; [5]
  herbicidal effect: 30%
Echinochloa crusgalli; [7]
  herbicidal effect: 45%
Echinochloa crusgalli; 12 d, pelargonic acid 5440 g/ha, flazasulfuron 50 g/ha, 8 L/ha
  herbicidal effect: 5%
Echinochloa crusgalli; [8]
  herbicidal effect: 0%
Echinochloa crusgalli; [9]
  herbicidal effect: 0%
Echinochloa crusgalli; [10]
  herbicidal effect: 0%
Echinochloa crusgalli; [11]
  herbicidal effect: 0%
Echinochloa crusgalli; [12]
  herbicidal effect: 10%
Echinochloa crusgalli; 23 d, pelargonic acid 10880 g/ha, flazasulfuron 50 g/ha, 16 L/ha
  herbicidal effect: 10%
Echinochloa crusgalli; [13]
  herbicidal effect: 10%
Echinochloa crusgalli; [14]
  herbicidal effect: 10%
Echinochloa crusgalli; 26 d, pelargonic acid 5440 g/ha, flazasulfuron 50 g/ha, 8 L/ha
  herbicidal effect: 0%
Echinochloa crusgalli; [15]
  herbicidal effect: 0%
Echinochloa crusgalli; [17]
  herbicidal effect: 0%
Echinochloa crusgalli; [19]
  herbicidal effect: 0%
Echinochloa crusgalli; [21]
  herbicidal effect: 0%
Echinochloa crusgalli; 72 d, pelargonic acid 5440 g/ha, flazasulfuron 50 g/ha, 8 L/ha
  herbicidal effect: 0%
Plantago major; [23]
  herbicidal effect: 20%
Plantago major; [1]
  herbicidal effect: 20%
Plantago major; [3]
  herbicidal effect: 50%
Plantago major; [4]
  herbicidal effect: 25%
Plantago major; [5]
  herbicidal effect: 25%
Plantago major; [6]
  herbicidal effect: 40%
Plantago major; [7]
  herbicidal effect: 40%
Plantago major; [8]
  herbicidal effect: 0%
Plantago major; [9]
  herbicidal effect: 0%
Plantago major; [10]
  herbicidal effect: 0%
Plantago major; [11]
  herbicidal effect: 0%
Plantago major; [13]
  herbicidal effect: 15%
Plantago major; [14]
  herbicidal effect: 15%
Plantago major; [15]
  herbicidal effect: 0%
Plantago major; [16]
  herbicidal effect: 0%
Plantago major; [17]
  herbicidal effect: 0%
Plantago major; [18]
  herbicidal effect: 0%
Plantago major; [19]
  herbicidal effect: 0%
Plantago major; [20]
  herbicidal effect: 0%
Plantago major; [21]
  herbicidal effect: 0%
Plantago major; [22]
  herbicidal effect: 0%
